Tested on: α7 integrin promoter
Assay: muscle cell-based assay: α7βgal+/− myoblasts/myotubes, LacZ reporter, β-galactosidase cleavage of FDG
Parameters: species or system mouse
Details: Myotubes; for Results in a α7+/− β-galactosidase assay, Myotubes, 0.5 uM: compound at 0.5 uM; for Results in a α7+/− β-galactosidase assay, Myotubes, 1 uM: compound at 1 uM; for Results in a α7+/− β-galactosidase assay, Myotubes, 5 uM: compound at 5 uM; for Results in a α7+/− β-galactosidase assay, Myotubes, 10 uM: compound at 10 uM; for Results in a α7+/− β-galactosidase assay, Myotubes, 20 uM: compound at 20 uM; for Results in a α7+/− β-galactosidase assay, Myotubes, 40 uM: compound at 40 uM
Summary of the method: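 Fluorescein generated from FDG by β-galactosidase reports α7 integrin promoter activity in differentiated myoblasts from α7+/− LacZ knock-in pups. Screening hits then went to dose-response, western blotting and a myostatin counterscreen.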

| SMILES | Results in a α7+/− β-galactosidase assay, Myotubes, 0.5 uM | Results in a α7+/− β-galactosidase assay, Myotubes, 1 uM | Results in a α7+/− β-galactosidase assay, Myotubes, 5 uM | Results in a α7+/− β-galactosidase assay, Myotubes, 10 uM | Results in a α7+/− β-galactosidase assay, Myotubes, 20 uM | Results in a α7+/− β-galactosidase assay, Myotubes, 40 uM |
| --- | --- | --- | --- | --- | --- | --- |
| O=C1C2CCCN2C(=O)N1CCCN1CCN(c2cccc(Br)c2)CC1 (stereo not drawn) [drawing 453] | −0.101 | −0.07437 | −0.1132 | 0.07677 | −0.1243 | 0.1476 |
| C=CCc1c(C)nc(-c2ccccc2)nc1N/N=C(\C)c1ccc(N)cc1 [drawing 454] | −0.04135 | −0.05977 | −0.2067 | 0.05284 | −0.1823 | 0.1021 |
| CC(C)(C)c1csc(NC(=O)c2cccnc2)n1 [drawing 455] | −0.1018 | −0.04907 | 0.01472 | 0.1276 | −0.2798 | −0.144 |
| Cc1ccccc1/C=C1\C(=O)Nc2ccc(F)cc21 [drawing 456] | 0.008769 | −0.01895 | −0.02208 | 0.1345 | −0.1202 | 0.009496 |
| Cc1ccc2c(c1)/C(=C/c1ccccc1)C(=O)N2 [drawing 457] | −0.1541 | −0.09775 | −0.09703 | 0.151 | −0.411 | −0.4149 |
| COC(=O)c1ccccc1CC(=O)CSc1nc(O)c(-c2ccccc2)c(O)n1 [drawing 458] | −0.05289 | −0.1068 | −0.1993 | 0.1104 | −0.1578 | 0.03611 |
| Cc1ccc2c(c1)/C(=C/c1ccccc1F)C(=O)N2 [drawing 459] | −0.02905 | −0.08264 | −0.2089 | 0.1057 | −0.3626 | −0.3722 |
| CC(=O)Nc1ccc(-n2c(C)nc(=O)c(-c3ccccc3)c2C)cc1 [drawing 460] | −0.1626 | −0.1764 | −0.2443 | −0.1679 | −0.3617 | −0.505 |
| CCc1nc2ccccc2c(C(=O)NCc2ccccc2)c1C [drawing 461] | −0.0989 | −0.1627 | 0.438 | 0.1173 | −0.1092 | 0.1436 |
| CCOC(=O)c1cc(-c2cccs2)nc2c1c(C)nn2-c1ccccn1 [drawing 462] | −0.07388 | −0.1286 | −0.1329 | −0.1516 | −0.2792 | −0.2792 |
| CN1CCN(c2ccccc2/C=C2\C(=O)Nc3ccccc32)CC1 [drawing 463] | 0.01535 | 0.02095 | −0.163 | −0.162 | −0.1247 | −0.07473 |
| COC(=O)c1cc(S(=O)(=O)NCC2CCN(Cc3ccc(Cl)cc3)CC2)cn1C [drawing 464] | −0.00414 | −0.05118 | −0.09401 | −0.08097 | −0.09607 | −0.07382 |
| COc1ccc(C(=O)Cn2nnc(-c3ccccc3NC(=O)c3ccco3)n2)cc1 [drawing 465] | 0.1086 | 0.1215 | −0.1502 | −0.3147 | −0.5196 | −0.8196 |
| N#Cc1nc(COc2ccccc2)oc1N1CCCC1 [drawing 466] | −0.1447 | −0.2423 | −0.3897 | −0.2892 | −0.5781 | −0.8948 |
| CCCc1nnc(SCC(=O)NC2CCCC2)n1CCOC [drawing 467] | −0.09246 | 0.01763 | −0.3088 | 0.4536 | −0.2024 | −0.4694 |
| Nc1cccc(/C=C/C(=O)O)c1 [drawing 468] | 0.04663 | −0.01629 | −0.2823 | −0.1292 | −0.1085 | −0.2156 |
| CCCC1C(c2cc(OC)c(OC)c(OC)c2)=Nc2c1c(=O)[nH]c(=O)n2Cc1ccccc1 (stereo not drawn) [drawing 469] | −0.09222 | −0.1313 | −0.484 | −0.34 | −0.2089 | −0.2856 |
| CC(C)(C)c1ccc(C(=O)OCC(=O)Nc2sc3c(c2C#N)CCC3)cc1 [drawing 470] | −0.03535 | −0.03363 | 0.4586 | −0.1998 | −0.05439 | −0.05938 |
| CCOc1cc(C)c(S(=O)(=O)N2CCCCC2)cc1C [drawing 471] | −0.1603 | −0.08287 | −0.1415 | −0.1282 | 0.01353 | −0.03791 |
| Cc1cc(OCC(=O)NC(C)C)ccc1Cl [drawing 472] | −0.02692 | −0.04637 | −0.3868 | −0.4196 | −0.2513 | −0.2531 |
| Cc1ccsc1CN(C)CC(=O)Cc1ccc([N+](=O)[O-])cc1Cl [drawing 473] | −0.05036 | −0.06852 | −0.2581 | −0.2695 | −0.1438 | −0.2052 |
| O=C1c2ccccc2C(=O)C1(CC(O)O)c1ccccc1 [drawing 474] | −0.08689 | 0.05823 | −0.2367 | −0.3763 | −0.3304 | −0.4389 |
| Cc1ccc(Cn2nnc3c(O)nc(C4CCCN(C(=O)c5ccco5)C4)nc32)cc1 (stereo not drawn) [drawing 475] | −0.1767 | −0.1614 | −0.2961 | −0.3051 | −0.225 | −0.2551 |
| Cc1ccc(NS(=O)(=O)c2ccc(-c3ccc(O)nn3)o2)c(C)c1 [drawing 477] | −0.04997 | 0.003075 | −0.3008 | −0.389 | −0.09047 | −0.1539 |
| CCCCN1CC(=O)N2Cc3[nH]c4ccccc4c3C[C@H]2C1=O [drawing 478] | −0.1229 | −0.1432 | −0.3665 | −0.4899 | −0.2121 | −0.2272 |
